Tests used:
MCT-induced PH in rats = assay: monocrotaline (MCT)-induced rat PH model; type: in vivo, Sprague Dawley (SD) rats
Procedure: FIGS. 15A, 15B, 15C, 15D, and 15E. […] (A) FB-23-2 chemical structure. (B) Hemodynamic measurement showing decreased RVSP in FB23-2-treated MCT rats. (C) FB23-2 treatment attenuated RV hypertrophy. (D) Representative micrographs of pentachrome staining showing a markedly thickened vessel in Vehicle-treated MCT rats whereas normalized thickness of vessel walls in FB23-2-treated rats. At 2 weeks post-MCT challenge, the rats were treated with either PBS or FB23-2 (3 mg/kg, i.p. twice a day) for 2 weeks. V=vessel, Br=Bronchiole. Scale bar, 20 μm. […] Student's t test.
FIGS. 17A, 17B, and 17C. Decreased RVSP and RV hypertrophy in Meclofenamate-treated MCT rats. (A) representative tracings of RVSP measurement. Mec=Meclofenamate. […] (C) Reduced RV hypertrophy in Meclofenamate-treated MCT rats. CTL, control rats without MCT treatment. *P<0.05; **P<0.01. One-way ANOVA.
FIGS. 18A and 18B. Inhibited pulmonary vascular remodeling in Meclofenamate-treated MCT rats. (A) Representative micrographs of pentachrome staining showing a markedly thickened vessel in PBS-treated MCT rats whereas normalized thickness of vessel walls in Meclofenamate-treated rats. At 2 weeks post-MCT challenge, the rats were treated with either PBS or Meclofenamate for 2 weeks. V=vessel, Br=Bronchiole. Scale bar, 20 μm. (B). Quantification of pulmonary artery (PA) wall thickness. CTL=control rats without MCT treatment. *P<0.05. One-way ANOVA.
FIGS. 19A and 19B. Improved right heart contractility and pulmonary arterial function in Meclofenamate-treated MCT rats. At 2 weeks post-MCT, the rats were treated with either PBS or Meclofenamate for 2 weeks and then subject to echocardiography for assessment of right heart contractility determined by RV fraction area changes (RV FAC) (A), and of pulmonary arterial function by PA acceleration time/ejection time ratio (PA AT/ET) (B). ** P<0.01. Student t test.
Inhibited Arginase expression in lung ECs of Fto^Tie2Cre mice following chronic hypoxia. To identify potential FTO targets in lung ECs, RNA was isolated from lung ECs of WT mice and Fto^Tie2Cre mice at normoxia, 3 days, and 21 days hypoxia for RNA sequencing analysis. Arg1 is one of the top 10 genes induced in hypoxic WT mice but not in hypoxic Fto^Tie2Cre mice. […] It has been shown that substrate L-Arginine levels inversely correlate to PA pressure in patients (19). […] Increased Arginase expression and activity in lung ECs leads to reduced substrate L-Arginine for nitric oxide (NO) synthesis by eNOS and thus impairs NO production (21, 22). Low NO levels affect vasotone and smooth muscle cell growth. […] FTO deficiency reduces the stability of ARG2 mRNA in human PAECs. To determine whether ARG2 (the major isoform in human ECs) is a target of FTO in human PAECs, a stability assay was carried out and the effect of FTO on the decay of ARG2 mRNA was assessed. FTO-silenced and control PAECs were treated with 5 μg/mL actinomycin D to stop the new transcriptional process. Total RNA was then isolated at 0, 3, 6 h post-actinomycin D treatment and quantified by QRT-PCR analysis. The relative ARG2 level was calculated and normalized to β-actin and the ARG2 mRNA half-life time (t1/2) was estimated according to the linear regression analysis (9). […] Increased m^6A demethylase activity and FTO expression in PAECs from IPAH patients compared to donor ECs and FTO-dependent upregulation of ARG2 expression in PAECs of IPAH patients. […] Furthermore, methylated RNA immunoprecipitation (MeRIP)-QRT-PCR analysis confirmed a marked decrease of m^6A ARG2 in IPAH ECs compared to normal ECs from unused donors (FIG. 10). • 7. SMC-specific Fto deletion inhibits hypoxia-induced PH in mice. To determine whether FTO is essential for medial thickening and muscularization of distal pulmonary vessels and development of PAH, novel tamoxifen-inducible Fto^iΔSMC mice were generated by breeding Fto-floxed mice into the genetic background of Myh11-CreER^T2 mice. […]

FTO = FTO (Homo sapiens, UniProt Q9C0B1); settings: FTO versus ALKBH5; cited from earlier work
[1] = FB23-2 3 mg/kg, i.p. twice a day for 2 weeks, vs vehicle-treated MCT rats

Chain of FTO (Q9C0B1 whole entry): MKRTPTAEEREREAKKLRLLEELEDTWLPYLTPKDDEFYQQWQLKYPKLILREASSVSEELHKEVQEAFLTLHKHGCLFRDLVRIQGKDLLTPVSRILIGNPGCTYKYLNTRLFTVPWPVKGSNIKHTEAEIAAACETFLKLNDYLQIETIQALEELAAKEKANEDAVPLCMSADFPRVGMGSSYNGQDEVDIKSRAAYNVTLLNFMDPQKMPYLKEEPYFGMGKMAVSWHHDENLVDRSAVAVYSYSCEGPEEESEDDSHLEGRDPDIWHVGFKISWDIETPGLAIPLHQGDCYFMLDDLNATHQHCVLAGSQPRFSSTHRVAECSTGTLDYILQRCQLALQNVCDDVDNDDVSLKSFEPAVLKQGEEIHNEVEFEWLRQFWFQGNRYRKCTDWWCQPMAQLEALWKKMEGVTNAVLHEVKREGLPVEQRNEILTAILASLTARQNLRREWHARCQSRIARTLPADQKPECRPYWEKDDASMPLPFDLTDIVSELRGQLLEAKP

Row | Structure (SMILES) | MCT-induced RVSP increase (MCT-induced PH in rats; FB23-2 3 mg/kg, i.p. twice a day for 2 weeks from 2 weeks post-MCT, measured 4 weeks post-MCT, vs vehicle) | RV hypertrophy determined by RV/LV+septum ratio (MCT-induced PH in rats; FB23-2 3 mg/kg, i.p. twice a day for 2 weeks from 2 weeks post-MCT, vs vehicle) | pulmonary arterial function (echocardiography, PA AT/ET) (MCT-induced PH in rats; [1]) | pulmonary vascular remodeling (vessel wall thickness, pentachrome staining) (MCT-induced PH in rats; [1]) | RVSP (MCT-induced PH in rats; Meclofenamate 10 mg/kg, p.o., twice a day for 2 weeks from 2 weeks post-MCT, vs PBS-treated MCT rats) | MCT-induced RV hypertrophy (MCT-induced PH in rats; Meclofenamate 10 mg/kg, p.o., twice a day for 2 weeks, vs PBS-treated MCT rats) | PA wall thickness (pentachrome staining; pulmonary vascular remodeling) (MCT-induced PH in rats; Meclofenamate 10 mg/kg, p.o., twice a day for 2 weeks, vs untreated MCT-rats) | right heart contractility, RV fraction area changes (RV FAC), echocardiography (MCT-induced PH in rats; Meclofenamate for 2 weeks from 2 weeks post-MCT, decrease seen in PBS-treated MCT rats) | ratio of PA acceleration time/ejection time (PA AT/ET) (MCT-induced PH in rats; Meclofenamate for 2 weeks from 2 weeks post-MCT, vs PBS-treated MCT rats) | selectivity of FTO inhibition (FTO)
1 | Cc1noc(C)c1-c1cc(Cl)c(Nc2ccccc2C(=O)NO)c(Cl)c1 [FB23-2] | markedly reduced | markedly reduced | improved pulmonary arterial function | reduced pulmonary vascular remodeling | – | – | – | – | – | –
2 | Cc1ccc(Cl)c(Nc2ccccc2C(=O)O)c1Cl [Meclofenamate sodium] | – | – | – | – | drastically decreased | markedly reduced | markedly reduced | reversed | marked increase | selective over ALKBH5

From patent US20230285346A1, “METHODS OF USING FTO INHIBITORS FOR THE TREATMENT OF PULMONARY HYPERTENSION” (Ann and Robert H. Lurie Children's Hospital of Chicago, priority 2022, published 2023)
